Experimental data as given in patent US7902373B2 (Pfizer Inc, priority 2006, dated 2011).
pIC50: −log10 of the molar value.

Molecular target: human recombinant H-PGDS (Homo sapiens, UniProt O60760)
Assay: Fluorescence intensity h-PGDS TBA enzyme assay
Format: biochemical
Conditions: Examples up to 622 (and 3a, 3b)

human recombinant H-PGDS, sequence (O60760 whole entry): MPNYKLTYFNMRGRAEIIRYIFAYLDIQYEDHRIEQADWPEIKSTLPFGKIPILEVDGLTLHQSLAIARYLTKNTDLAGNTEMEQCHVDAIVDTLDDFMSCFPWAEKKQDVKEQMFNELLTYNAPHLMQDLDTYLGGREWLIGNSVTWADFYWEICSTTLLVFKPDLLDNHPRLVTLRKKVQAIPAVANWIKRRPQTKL

pIC50 | Compound
8.74 | O=C(NC1CCN(c2ccc(C(=O)c3ccccn3)cn2)CC1)c1ccc(-c2cccc(F)c2)nc1 [Example 149, 6-(3-Fluorophenyl)-N-{1-[5-(pyridin-2-ylcarbonyl)pyridin-2-yl]piperidin-4-yl}nicotinamide]
8.74 | COC(=O)c1cc(C)nc(N2CCC(NC(=O)c3ccc(-c4cccc(F)c4)nc3)CC2)n1 [Example 150, Methyl 2-[4-({[6-(3-fluorophenyl)pyridin-3-yl]carbonyl}amino)piperidin-1-yl]-6-methylpyrimidine-4-carboxylate]
9.28 | Nc1cc(N2CCC(NC(=O)c3ccc(-c4cccc(F)c4)nc3)CC2)ncn1 [Example 151, N-[1-(6-Aminopyrmidin-4-yl)piperidin-4-yl]-6-(3-fluorophenyl)nicotinamide]
8.47 | O=C(NC1CCN(c2ncccc2C(=O)NCc2ccccc2)CC1)c1ccc(-c2cccc(F)c2)nc1 [Example 152, N-Benzyl-2-[4-({[6-(3-fluorophenyl)pyridin-3-yl]carbonyl}amino)piperidin-1-yl]nicotinamide]
8.72 | O=C(NC1CCN(c2nc3ccccc3s2)CC1)c1ccc(-c2cccc(F)c2)nc1 [Example 153, N-[1-(1,3-Benzothiazol-2-yl)piperidin-4-yl]-6-(3-fluorophenyl)nicotinamide]
9.02 | CCc1cn2nc(N3CCC(NC(=O)c4ccc(-c5cccc(F)c5)nc4)CC3)ccc2n1 [Example 154, N-[1-(2-Ethylimidazo[1,2-b]pyridazin-6-yl)piperidin-4-yl]-6-(3-fluorophenyl)nicotinamide]
8.64 | CC(C)c1nccnc1N1CCC(NC(=O)c2ccc(-c3cccc(F)c3)nc2)CC1 [Example 155, 6-(3-Fluorophenyl)-N-[1-(3-isopropylpyrazin-2-yl)piperidin-4-yl]nicotinamide]
8.50 | CC[C@@H](C)c1nccnc1N1CCC(NC(=O)c2ccc(-c3cccc(F)c3)nc2)CC1 [Example 156, 6-(3-Fluorophenyl)-N-(1-{3-[(1R)-1-methylpropyl]pyrazin-2-yl}piperidin-4-yl)nicotinamide]
9.17 | CC(C)NC(=O)c1ccc(N2CCC(NC(=O)c3ccc(-c4cccc(F)c4)nc3)CC2)nn1 [Example 157, 6-[4-({[6-(3-Fluorophenyl)pyridin-3-yl]carbonyl}amino)piperidin-1-yl]-N-isopropylpyridazine-3-carboxamide]
8.80 | O=C(NC1CCN(c2nc3ccccc3o2)CC1)c1ccc(-c2cccc(F)c2)nc1 [Example 158, N-[1-(1,3-Benzoxazol-2-yl)piperidin-4-yl]-6-(3-fluorophenyl)nicotinamide]
8.80 | CC(C)CN(C)C(=O)c1ccc(N2CCC(NC(=O)c3ccc(-c4cccc(F)c4)nc3)CC2)nn1 [Example 159, 6-[4-({[6-(3-Fluorophenyl)pyridin-3-yl]carbonyl}amino)piperidin-1-yl]-N-isobutyl-N-methylpyridazine-3-carboxamide]
9.32 | Cc1cc(NC(=O)c2ccc(N3CCC(NC(=O)c4ccc(-c5cccc(F)c5)nc4)CC3)nn2)n(C)n1 [Example 160, N-(1,3-Dimethyl-1H-pyrazol-5-yl)-6-[4-({[6-(3-fluorophenyl)pyridin-3-yl]carbonyl}amino)piperidin-1-yl]pyridazine-3-carboxamide]
8.41 | Cn1c(-c2cccc(C#N)c2)nc2c(N3CCC(NC(=O)c4ccc(-c5cccc(F)c5)nc4)CC3)ncnc21 [Example 161, N-{1-[8-(3-Cyanophenyl)-9-methyl-9H-purin-6-yl]piperidin-4-yl}-6-(3-fluorophenyl)nicotinamide]
8.96 | Cc1cnc(Cn2cnc3c(N4CCC(NC(=O)c5ccc(-c6cccc(F)c6)nc5)CC4)ncnc32)cn1 [Example 162, 6-(3-Fluorophenyl)-N-(1-{9-[(5-methylpyrazin-2-yl)methyl]-9H-purin-6-yl}piperidin-4-yl)nicotinamide]
7.84 | O=C(NC1CCN(c2ccc(C(=O)NCC3CCCCC3)nn2)CC1)c1ccc(-c2cccc(F)c2)nc1 [Example 163, N-(Cyclohexylmethyl)-6-[4-({[6-(3-fluorophenyl)pyridin-3-yl]carbonyl}amino)piperidin-1-yl]pyridazine-3-carboxamide]
9.37 | O=C(NC1CCN(c2ccc(C(=O)NCCN3CCNC3=O)nn2)CC1)c1ccc(-c2cccc(F)c2)nc1 [Example 164, 6-[4-({[6-(3-Fluorophenyl)pyridin-3-yl]carbonyl}amino)piperidin-1-yl]-N-[2-(2-oxoimidazolidin-1-yl)ethyl]pyridazine-3-carboxamide]
8.94 | O=C(NC1CCN(c2ncccc2C(=O)N2CCCC2)CC1)c1ccc(-c2cccc(F)c2)nc1 [Example 165, 6-(3-Fluorophenyl)-N-{1-[3-(pyrrolidin-1-ylcarbonyl)pyridin-2-yl]piperidin-4-yl}nicotinamide]
8.46 | O=C(NC1CCN(c2ncc3ccccc3n2)CC1)c1ccc(-c2cccc(F)c2)nc1 [Example 166, 6-(3-Fluorophenyl)-N-(1-quinazolin-2-ylpiperidin-4-yl)nicotinamide]
8.50 | COC(=O)c1cnc(N2CCC(NC(=O)c3ccc(-c4cccc(F)c4)nc3)CC2)cn1 [Example 167, Methyl 5-[4-({[6-(3-fluorophenyl)pyridin-3-yl]carbonyl}amino)piperidin-1-yl]pyrazine-2-carboxylate]

pIC50 | Compound
8.60 | Cc1cc(NC(=O)c2cccnc2N2CCC(NC(=O)c3ccc(-c4cccc(F)c4)nc3)CC2)no1 [Example 168, 2-[4-({[6-(3-Fluorophenyl)pyridin-3-yl]carbonyl}amino)piperidin-1-yl]-N-(5-methylisoxazol-3-yl)nicotinamide]
7.63 | CCc1cnc(CC)c(N2CCC(NC(=O)c3ccc(-c4cccc(F)c4)nc3)CC2)n1 [Example 169, N-[1-(3,6-Diethylpyrazin-2-yl)piperidin-4-yl]-6-(3-fluorophenyl)nicotinamide]
8.75 | NC(=O)c1cc2c(nc1N1CCC(NC(=O)c3ccc(-c4cccc(F)c4)nc3)CC1)CCC2 [Example 170, 2-[4-({[6-(3-Fluorophenyl)pyridin-3-yl]carbonyl}amino)piperidin-1-yl]-6,7-dihydro-5H-cyclopenta[b]pyridine-3-carboxamide]
8.85 | O=C(NC1CCN(c2ncc3cccnc3n2)CC1)c1ccc(-c2cccc(F)c2)nc1 [Example 171, 6-(3-Fluorophenyl)-N-(1-pyrido[2,3-d]pyrimidin-2-ylpiperidin-4-yl)nicotinamide]
7.46 | O=C(NC1CCN(c2nccc(-c3cccc(F)c3)n2)CC1)c1ccc(-c2cccc(F)c2)nc1 [Example 172, 6-(3-Fluorophenyl)-N-{1-[4-(3-fluorophenyl)pyrimidin-2-yl]piperidin-4-yl}nicotinamide]
7.80 | COc1cc2ncc(N3CCC(NC(=O)c4ccc(-c5cccc(F)c5)nc4)CC3)nc2cc1OC [Example 173, N-[1-(6,7-Dimethoxyquinoxalin-2-yl)piperidin-4-yl]-6-(3-fluorophenyl)nicotinamide]
8.05 | O=C(NC1CCN(c2ncc3ccc(F)cc3n2)CC1)c1ccc(-c2cccc(F)c2)nc1 [Example 174, 6-(3-Fluorophenyl)-N-[1-(7-fluoroquinazolin-2-yl)piperidin-4-yl]nicotinamide]
8.27 | Cc1nc(N2CCC(NC(=O)c3ccc(-c4cccc(F)c4)nc3)CC2)ccc1C#N [Example 175, N-[1-(5-Cyano-6-methylpyridin-2-yl)piperidin-4-yl]-6-(3-fluorophenyl)nicotinamide]
9.12 | Cc1nc(N)c2nc(N3CCC(NC(=O)c4ccc(-c5cccc(F)c5)nc4)CC3)cnc2n1 [Example 176, N-[1-(4-Amino-2-methylpteridin-6-yl)piperidin-4-yl]-6-(3-fluorophenyl)nicotinamide]
7.16 | COc1cccc(-c2ccnc(N3CCC(NC(=O)c4ccc(-c5cccc(F)c5)nc4)CC3)n2)c1 [Example 177, 6-(3-Fluorophenyl)-N-{1-[4-(3-methoxyphenyl)pyrimidin-2-yl]piperidin-4-yl}nicotinamide]
9.13 | COc1ccc2ncnc(N3CCC(NC(=O)c4ccc(-c5cccc(F)c5)nc4)CC3)c2c1 [Example 178, 6-(3-Fluorophenyl)-N-[1-(6-methoxyquinazolin-4-yl)piperidin-4-yl]nicotinamide]
8.65 | CCOc1cc(CN2CCC(NC(=O)c3ccc(-c4cccc(F)c4)nc3)CC2)ccc1O [Example 179, N-(1-(3-Ethoxy-4-hydroxybenzyl)piperidin-4-yl)-6-(3-fluorophenyl)nicotinamide]
9.43 | Cc1cn(CCN2CCC(NC(=O)c3ccc(-c4cccc(F)c4)nc3)CC2)c(=O)[nH]c1=O [Example 180, 6-(3-Fluorophenyl)-N-{1-[2-(5-methyl-2,4-dioxo-34-dihydropyrimidin-1(2H)-yl)ethyl]piperidin-4-yl}nicotinamide]
8.47 | O=C(NC1CCN(Cc2cccc(-c3ncccn3)c2)CC1)c1ccc(-c2cccc(F)c2)nc1 [Example 181, 6-(3-Fluorophenyl)-N-[1-(3-pyrimidin-2-ylbenzyl)piperidin-4-yl]nicotinamide]
9.37 | O=C(NC1CCN(Cc2c[nH]nc2-c2ccccc2)CC1)c1ccc(-c2cccc(F)c2)nc1 [Example 182, 6-(3-Fluorophenyl)-N-{1-[(3-phenyl-1H-pyrazol-4-yl)methyl]piperidin-4-yl}nicotinamide]
8.95 | O=C(NC1CCN(Cc2c[nH]c3cc(F)ccc23)CC1)c1ccc(-c2cccc(F)c2)nc1 [Example 183, N-{1-[(6-Fluoro-1H-indol-3-yl)methyl]piperidin-4-yl}-6-(3-fluorophenyl)nicotinamide]
8.44 | COc1cc(CN2CCC(NC(=O)c3ccc(-c4cccc(F)c4)nc3)CC2)ccc1OC(C)C [Example 184, 6-(3-Fluorophenyl)-N-[1-(4-isopropoxy-3-methoxybenzyl)piperidin-4-yl]nicotinamide]
7.96 | CCn1cc(CN2CCC(NC(=O)c3ccc(-c4cccc(F)c4)nc3)CC2)cn1 [Example 185, N-{1-[(1-Ethyl-1H-pyrazol-4-yl)methyl]piperidin-4-yl}-6-(3-fluorophenyl)nicotinamide]
8.75 | O=C(NC1CCN(CC2CCC=CO2)CC1)c1ccc(-c2cccc(F)c2)nc1 (centres unmarked) [Example 186, N-[1-(3,4-Dihydro-2H-pyran-2-ylmethyl)piperidin-4-yl]-6-(3-fluorophenyl)nicotinamide]
